In ChEMBL document CHEMBL6120944, “SAR Analysis of Novel Coxsackie virus A9 Capsid Binders” (J Med Chem, 2024):
Converted amounts (≈) assume the structure as drawn. The source made the active and inactive calls. The calls are words filed in the database; no cut-off is given here.

Tests used:
[1] = Cytotoxicity against human A549 cells assessed as cell viability; assay type: toxicity, cell-based
[2] = Distribution coefficient, log D of the compound by HPLC analysis; assay type: physicochemical; details: octanol/water
Coxsackievirus A9 [3] = experiment: Antiviral activity against Coxsackievirus A9 infected in human A549 cells assessed as increase in cell viability at 100 uM pre-infected with virus for 1 hr followed by compound addition and measured after 24 hrs by crystal violet staining based analysis relative to control; assay type: functional
[4] = Selectivity index, ratio of CC50 for cytotoxicity against human A549 cells assessed as cell viability to EC50 for antiviral activity against Coxsackievirus A9 infected in human A549 cells assessed as inhibition of virus-induced cytopathic effect; assay type: toxicity, cell-based; details: read-out: Ratio CC50/EC50
Coxsackievirus A9 [5] = experiment: Antiviral activity against Coxsackievirus A9 infected in human A549 cells assessed as increase in cell viability at 10 uM pre-infected with virus for 1 hr followed by compound addition and measured after 24 hrs by crystal violet staining based analysis; assay type: functional, organism-based
[6] = Kinetic solubility of compound by HPLC analysis; assay type: physicochemical; details: read-out: Kinetic_solubility
Coxsackievirus A9 [7] = experiment: Antiviral activity against Coxsackievirus A9 infected in human A549 cells assessed as inhibition of virus-induced cytopathic effect pre-infected with virus for 1 hr followed by compound addition and measured after 24 hrs by crystal violet staining based analysis; assay type: functional, organism-based; details: Enterovirus B
Coxsackievirus A9 [8] = experiment: Antiviral activity against Coxsackievirus A9 infected in human A549 cells assessed as increase in cell viability at 5 uM pre-infected with virus for 1 hr followed by compound addition and measured after 24 hrs by crystal violet staining based analysis relative to control; assay type: functional
[9] = Metabolic stability in CD-1 mouse liver microsome assessed as half life preincubated with compound for 10 mins followed by NADP addition and measured after 60 mins by LC-MS/MS analysis; assay type: ADME; details: liver microsomes, time 70 min
[10] = Metabolic stability in human liver microsome assessed as half life preincubated with compound for 10 mins followed by NADP addition and measured after 60 mins by LC-MS/MS analysis; assay type: ADME; details: liver microsomes, time 70 min
[11] = Metabolic stability in human liver microsome assessed as intrinsic clearance preincubated with compound for 10 mins followed by NADP addition and measured after 60 mins by LC-MS/MS analysis; assay type: ADME; details: liver microsomes, time 70 min, read-out: CLH
Coxsackievirus A9 [12] = experiment: Antiviral activity against Coxsackievirus A9 infected in human A549 cells assessed as inhibition of virus-induced cytopathic effect at 5 uM pre-infected with virus for 1 hr followed by compound addition and measured after 24 hrs by crystal violet staining based analysis relative to control; assay type: functional; design: scale not given: the % may be the effect or the level left
[13] = Metabolic stability in CD-1 mouse liver microsome assessed as intrinsic clearance preincubated with compound for 10 mins followed by NADP addition and measured after 60 mins by LC-MS/MS analysis; assay type: ADME; details: liver microsomes, time 70 min, read-out: CLH

CN1CCN(Cc2ccc(NCc3cccc(F)c3)cc2)CC1
CC50 [1]: 222 µM | logD [2]: 1.93 | Activity (Coxsackievirus A9 [3]): ~70% | selectivity ratio [4]: 38 | Activity (Coxsackievirus A9 [5]): Active | solubility kinetic [6]: 220 µg/mL (≈ 702 µM) | EC50 (Coxsackievirus A9 [7]): 5.84 µM

COc1ccccc1CNc1ccc(CN2CCN(C)CC2)cc1
CC50 [1]: 360 µM | Activity (Coxsackievirus A9 [3]): 40% | selectivity ratio [4]: 45.9 | Activity (Coxsackievirus A9 [5]): Active | EC50 (Coxsackievirus A9 [7]): 7.84 µM

CN1CCN(Cc2ccc(NC(=O)c3ccc(Cl)cc3)cc2)CC1
CC50 [1]: > 1000 µM | logD [2]: 2.27 | selectivity ratio [4]: > 125 | solubility kinetic [6]: 220 µg/mL (≈ 640 µM) | EC50 (Coxsackievirus A9 [7]): 7.98 µM

CN1CCN(Cc2ccc(NCc3ccc(F)c(F)c3)cc2)CC1
CC50 [1]: 215 µM | logD [2]: 1.98 | Activity (Coxsackievirus A9 [3]): ~70% | selectivity ratio [4]: 52.2 | Activity (Coxsackievirus A9 [5]): Active | solubility kinetic [6]: 220 µg/mL (≈ 664 µM) | EC50 (Coxsackievirus A9 [7]): 4.11 µM

CN1CCN(Cc2ccc(NCc3ccc(F)cc3F)cc2)CC1
CC50 [1]: 201 µM | logD [2]: 1.9 | Activity (Coxsackievirus A9 [3]): ~70% | selectivity ratio [4]: 29.5 | Activity (Coxsackievirus A9 [5]): Active | solubility kinetic [6]: 240 µg/mL (≈ 724 µM) | EC50 (Coxsackievirus A9 [7]): 6.8 µM

COc1ccc(CNc2ccc(CN3CCN(C)CC3)cc2)cc1
CC50 [1]: 376 µM | logD [2]: 1.81 | Activity (Coxsackievirus A9 [3]): 60% | selectivity ratio [4]: 36 | Activity (Coxsackievirus A9 [5]): Active | solubility kinetic [6]: 210 µg/mL (≈ 645 µM) | EC50 (Coxsackievirus A9 [7]): 10.5 µM

CN1CCN(Cc2ccc(NCc3ccc(Cl)cc3)cc2)CC1
CC50 [1]: 114 µM | Activity (Coxsackievirus A9 [8]): 90% | logD [2]: 2.34 | selectivity ratio [4]: 90.1 | half-life [9]: 7 min | half-life [10]: 20.9 min | microsomal CLint [11]: 66.4 µL/min/mg | Activity (Coxsackievirus A9 [5]): Active | Activity (Coxsackievirus A9 [12]): 100% | microsomal CLint [13]: 199 µL/min/mg | solubility kinetic [6]: 220 µg/mL (≈ 667 µM) | EC50 (Coxsackievirus A9 [7]): 1.27 µM

CN1CCN(Cc2ccc(NCc3ccc(F)cc3)cc2)CC1
CC50 [1]: 364 µM | logD [2]: 1.94 | Activity (Coxsackievirus A9 [3]): ~70% | selectivity ratio [4]: 155 | Activity (Coxsackievirus A9 [5]): Active | solubility kinetic [6]: 200 µg/mL (≈ 638 µM) | EC50 (Coxsackievirus A9 [7]): 2.34 µM

CN1CCN(Cc2ccc(NCc3ccc(-c4ccccc4)cc3)cc2)CC1
CC50 [1]: 15.8 µM | Activity (Coxsackievirus A9 [8]): 60% | selectivity ratio [4]: 24.7 | Activity (Coxsackievirus A9 [5]): Active | Activity (Coxsackievirus A9 [12]): 100% | solubility kinetic [6]: 210 µg/mL (≈ 565 µM) | EC50 (Coxsackievirus A9 [7]): 0.64 µM

CN1CCN(Cc2ccc(NCc3ccc(C(F)(F)F)cc3)cc2)CC1
CC50 [1]: 78.6 µM | Activity (Coxsackievirus A9 [3]): ~60% | selectivity ratio [4]: 74.1 | half-life [9]: 12.8 min | half-life [10]: 33.7 min | microsomal CLint [11]: 41.2 µL/min/mg | Activity (Coxsackievirus A9 [5]): Active | microsomal CLint [13]: 108 µL/min/mg | solubility kinetic [6]: 210 µg/mL (≈ 578 µM) | EC50 (Coxsackievirus A9 [7]): 1.06 µM

CN1CCN(Cc2ccc(NC(=O)c3ccc(-c4ccccc4)cc3)cc2)CC1
CC50 [1]: 144 µM | selectivity ratio [4]: 134 | solubility kinetic [6]: 260 µg/mL (≈ 674 µM) | EC50 (Coxsackievirus A9 [7]): 1.07 µM

CN1CCN(Cc2ccc(NCc3ccccc3F)cc2)CC1
CC50 [1]: 351 µM | logD [2]: 2.05 | Activity (Coxsackievirus A9 [3]): ~70% | selectivity ratio [4]: 52.8 | Activity (Coxsackievirus A9 [5]): Active | solubility kinetic [6]: 260 µg/mL (≈ 830 µM) | EC50 (Coxsackievirus A9 [7]): 6.66 µM
